Data from patent US8575116B1, “Polyacetylenic compounds for protecting against pancreatic islet atrophy” (Academia Sinica, priority 2010, dated 2013).

System: RIN-m5F cells
Test: Intracellular calcium (Fura 2-AM) in RIN-m5F cells
Assay type: cell-based, rat
Conditions: cytopiloyne 7, 14 and 28 μM, glucose 16.7 mM
Method: FIGS. 5A-D show the effects of cytopiloyne on calcium mobilization, DAG generation and PKCa activation. (A) After Fura 2-AM loading, RIN-m5F cells were stimulated with 16.7 mM glucose (HG) and cytopiloyne at 7, 14 and 28 μM. Level of intracellular calcium, as shown by the 340/380 nm ratio, was detected using a fluorescence spectrophotometer. (B) RIN-m5F cells were pulsed with ^3H-myristic acid (5 Cim1^−1) for 16 hours. After washing, the cells were stimulated with glucose, cytopiloyne, PMA and glimepiride. Total lipids were separated on a silica thin layer plate. DAG and cholesterol were visualized with iodine vapor and identified by their standards. (C) RIN-m5F cells were incubated with vehicle (Mock), cytopiloyne (CP, 3, 7 and 14 μM), PMA (1 μM) and 16.7 mM (HG). Membrane or cytosolic proteins were subjected to Western blot with anti-PKCα and anti-Actin antibodies. (D) RIN-m5F cells were incubated with vehicle (Mock), cytopiloyne (CP 7 μM) and PMA (1 μM). […]
RIN-m5F cells were pre-loaded with Fura 2-AM (5 μM) in modified Krebs-Henseleit buffer for 30 min at 25° C. […] Intracellular calcium of the cells was measured using a fluorescence spectrophotometer (CAF 110, Jasco, Tokyo, Japan) at excitation wavelengths of 340 and 380 nm and an emission wavelength of 500 nm. The ratio of fluorescence intensity at 340 nm to that at 380 nm represents the level of intracellular calcium.

## CC#CC#CC#CC#CCCC(CO)O[C@@H]1O[C@H](CO)[C@@H](O)[C@H](O)[C@H]1O (stereo partly drawn) [cytopiloyne, 2-β-D-glucopyranosyloxy-1-hydroxytrideca-5,7,9,11-tetrayne]
  intracellular calcium (340/380 nm ratio): increased intracellular calcium in a dose-dependent manner
